Values joined by “and” are separate entries in the source; they are usually repeats but may differ in a detail not shown here. Identical values can stand only once.
What was measured:
neutrophil migration = assay: PMN transmigration assay (T84 monolayer infected with Salmonella typhimurium, MPO readout); type: cell-based, human
Protocol: PMN transmigration assay. T84 colorectal cancer cells were grown to confluence on the bottom side of 12 well polycarbonate membrane inserts of a 24 well Transwell® plate. The confluent growth of these epithelial cells results in physiologically-relevant apical (luminal) and basolateral surfaces in the transwells. […] The monolayer was then infected on the apical surface with Salmonella typhimurium for 2 hours to induce hepoxilin A3 (HXA3) efflux through the MRP2 membrane protein and into the apical chamber. […] Freshly isolated and prepared human neutrophils were then added to the basolateral side and allowed to transmigrate through the monolayer for 2 hours. The number of neutrophils migrated to the apical chamber (due to the HXA3 gradient) was then assayed by determination of myeloperoxidase activity (a neutrophil biomarker). Inhibition of transmigration is indicated by lower MPO activity in the apical chamber.

[1] = Rat PK, plasma concentrations after oral dosing; type: in vivo, Sprague-Dawley rats; conditions: for plasma concentration of BT070 (breakdown product of BT051): individual animals A-E
Protocol: [Worded in the source for another target; this target is reported under the same test.] Blood samples were collected at the indicated time points and processed to plasma. Plasma concentrations of BT090 were assayed by LC-MS/MS. Feces were collected over t=0 to 4 h, 4-8 h, and 8-24 h, homogenized in buffer and assayed for BT090 concentrations by LC-MS/MS. Total feces weight collected for each time interval was recorded. BT090 was formulated in 1% NMP, 0.3% Tween-80 in 0.5% methylcellulose.

[2] = Amount excreted in feces after oral dosing in rats; type: in vivo, Sprague-Dawley rats; conditions: rat; for Conc. in feces: BT070 10 mg/kg oral, individual animals A-C, corrected for the 1:9 dilution factor
[3] = BT070 10 mg/kg oral, rat, individual animals A-C, 10 mg/kg

SMILES: CC[C@@H]1NC(=O)[C@H]([C@H](O)[C@H](C)CCCCCC(=O)O)N(C)C(=O)[C@H](C(C)C)N(C)C(=O)[C@H](CC(C)C)N(C)C(=O)[C@H](CC(C)C)N(C)C(=O)[C@@H](C)NC(=O)[C@H](C)NC(=O)[C@H](CC(C)C)N(C)C(=O)[C@H](C(C)C)NC(=O)[C@H](CC(C)C)N(C)C(=O)CN(C)C1=O [BT070]
- inhibition of neutrophil migration, dose-response (neutrophil migration; FIG. 1): dose-responsive inhibition
- inhibition of neutrophil migration (neutrophil migration; dose of 100 nM): exhibit inhibition of neutrophil migration
- IC50 (neutrophil migration; read-out: compound concentration at which 50% inhibition of neutrophil migration was observed, FIG. 1 dose-response): 31.2 nM
- plasma concentration, Mean ([1]; BT070 10 mg/kg oral, rat, 0.5 h, mean): 3588.6 ng/mL
- plasma concentration, Mean ([1]; BT070 10 mg/kg oral, rat, 1 h, mean): 2301.5 ng/mL
- plasma concentration, Mean ([1]; BT070 10 mg/kg oral, rat, 2 h, mean): 1522.8 ng/mL
- plasma concentration, Mean ([1]; BT070 10 mg/kg oral, rat, 4 h, mean): 829.6 ng/mL
- plasma concentration, Mean ([1]; BT070 10 mg/kg oral, rat, 6 h, mean): 488.3 ng/mL
- plasma concentration, Mean ([1]; BT070 10 mg/kg oral, rat, 8 h, mean): 293.9 ng/mL
- plasma concentration, Mean ([1]; BT070 10 mg/kg oral, rat, 24 h, mean): 101.2 ng/mL
- AUCinf [1, 3]: 17616.8 ng/mL * h and 19158.4* ng/mL * h and 7432.0 ng/mL * h
- AUClast [1, 3]: 17560.9 ng·h/mL and 11798.3 ng·h/mL and 7249.5 ng·h/mL
- AUCinf, Mean ([1]; BT070 10 mg/kg oral, rat, mean): 14735.7 ng·h/mL
- AUClast, Mean ([1]; BT070 10 mg/kg oral, rat, mean): 12202.9 ng·h/mL
- plasma concentration of BT070 (breakdown product of BT051) ([1]; after BT051 10 mg/kg oral, rat, 0.5 h): 3.3 ng/mL and NQ (Not quantifiable. No peak or below limit of quantification (LOQ = 2.5 ng/mL)) (4×)
- plasma concentration of BT070 (breakdown product of BT051), Mean ([1]; after BT051 10 mg/kg oral, rat, 0.5 h, mean): 3.3 ng/mL
- plasma concentration of BT070 (breakdown product of BT051) ([1]; after BT051 10 mg/kg oral, rat, 1 h): NQ (Not quantifiable. No peak or below limit of quantification (LOQ = 2.5 ng/mL))
- plasma concentration of BT070 (breakdown product of BT051) ([1]; after BT051 10 mg/kg oral, rat, 2 h): NQ (Not quantifiable. No peak or below limit of quantification (LOQ = 2.5 ng/mL))
- plasma concentration of BT070 (breakdown product of BT051) ([1]; after BT051 10 mg/kg oral, rat, 4 h): NQ (Not quantifiable. No peak or below limit of quantification (LOQ = 2.5 ng/mL))
- plasma concentration of BT070 (breakdown product of BT051) ([1]; after BT051 10 mg/kg oral, rat, 6 h): NQ (Not quantifiable. No peak or below limit of quantification (LOQ = 2.5 ng/mL))
- plasma concentration of BT070 (breakdown product of BT051) ([1]; after BT051 10 mg/kg oral, rat, 8 h): NQ (Not quantifiable. No peak or below limit of quantification (LOQ = 2.5 ng/mL))
- plasma concentration of BT070 (breakdown product of BT051) ([1]; after BT051 10 mg/kg oral, rat, 24 h): NQ (Not quantifiable. No peak or below limit of quantification (LOQ = 2.5 ng/mL))
- Cmax of BT070 (breakdown product of BT051) ([1]; after BT051 10 mg/kg oral, rat, individual animals): 3.3 ng/mL
- Cmax of BT070 (breakdown product of BT051), Mean ([1]; after BT051 10 mg/kg oral, rat, mean): 3.3 ng/mL
- detection in the plasma from 15 minutes to 24 hours ([1]; compound dosed orally in rats at 10 mg/kg): present in the plasma in all subject rats
- oral bioavailability of the breakdown product of BT051 ([1]; following oral administration of BT051 in rats at 10 mg/kg): not orally bioavailable
- Conc. in feces ([2]; 0-4 h): NQ (Not quantifiable. No peak or below limit of quantification (LOQ = 1000 ng/mL))
- Conc. in feces ([2]; 4-8 h): NQ (Not quantifiable. No peak or below limit of quantification (LOQ = 1000 ng/mL))
- Total amount of BT070 (breakdown product of BT051) excreted in feces ([2]; after BT051 10 mg/kg oral, 0-48 h, individual animals A-D): 36.9 µg and 33.4 µg and 41.4 µg and 38.5 µg
- Amount of BT070 (breakdown product of BT051) excreted in feces ([2]; after BT051 10 mg/kg oral, 8-24 h, individual animals A-D): 31.2 µg and 14.3 µg and 10.6 µg and 34.8 µg
- Amount of BT070 (breakdown product of BT051) excreted in feces ([2]; after BT051 10 mg/kg oral, 24-48 h, individual animals A-D): 5.7 µg and 19.1 µg and 30.8 µg and 3.7 µg
